Assay results as given in BigSolDB 2.1.

For `O=c1cc(-c2ccccc2)oc2cc(O)cc(O)c12`, the solubility (mole fraction) (in DMF, 293.2 K) was 0.01, the solubility (mole fraction) (in DMF, 298.2 K) was 0.0131 and the solubility (mole fraction) (in DMF, 303.2 K) was 0.0152. For the same molecule, the solubility (mole fraction) (in DMF, 308.2 K) was 0.0229, the solubility (mole fraction) (in DMF, 313.2 K) was 0.0264 and the solubility (mole fraction) (in DMF, 318.2 K) was 0.0328. It also gave a solubility (mole fraction) (in DMF, 323.2 K) of 0.0408, a solubility (mole fraction) (in DMF, 328.2 K) of 0.0479 and a solubility (mole fraction) (in DMF, 333.2 K) of 0.0568. The solubility (mole fraction) (in acetone, 293.2 K) was 0.00128, the solubility (mole fraction) (in acetone, 298.2 K) was 0.00143 and the solubility (mole fraction) (in acetone, 303.2 K) was 0.00161. It also gave a solubility (mole fraction) (in acetone, 308.2 K) of 0.00176, a solubility (mole fraction) (in acetone, 313.2 K) of 0.00205 and a solubility (mole fraction) (in acetone, 318.2 K) of 0.00226. It also gave a solubility (mole fraction) (in acetone, 323.2 K) of 0.00243, a solubility (mole fraction) (in acetone, 328.2 K) of 0.00281 and a solubility (mole fraction) (in ethanol, 293.2 K) of 0.000455. The solubility (mole fraction) (in ethanol, 298.2 K) was 0.000505, the solubility (mole fraction) (in ethanol, 303.2 K) was 0.000637 and the solubility (mole fraction) (in ethanol, 308.2 K) was 0.000709. For the same molecule, the solubility (mole fraction) (in ethanol, 313.2 K) was 0.000822, the solubility (mole fraction) (in ethanol, 318.2 K) was 0.000903 and the solubility (mole fraction) (in ethanol, 323.2 K) was 0.00113. It also gave a solubility (mole fraction) (in ethanol, 328.2 K) of 0.00144, a solubility (mole fraction) (in ethanol, 333.2 K) of 0.00171 and a solubility (mole fraction) (in ethyl acetate, 293.2 K) of 0.000716. For the same molecule, the solubility (mole fraction) (in ethyl acetate, 298.2 K) was 0.00082, the solubility (mole fraction) (in ethyl acetate, 303.2 K) was 0.000893 and the solubility (mole fraction) (in ethyl acetate, 308.2 K) was 0.00101. For the same molecule, the solubility (mole fraction) (in ethyl acetate, 313.2 K) was 0.00113, the solubility (mole fraction) (in ethyl acetate, 318.2 K) was 0.00134 and the solubility (mole fraction) (in ethyl acetate, 323.2 K) was 0.00144. The solubility (mole fraction) (in ethyl acetate, 328.2 K) was 0.00163, the solubility (mole fraction) (in ethyl acetate, 333.2 K) was 0.00176 and the solubility (mole fraction) (in isopropanol, 293.2 K) was 0.000512. For the same molecule, the solubility (mole fraction) (in isopropanol, 298.2 K) was 0.000614, the solubility (mole fraction) (in isopropanol, 303.2 K) was 0.000707 and the solubility (mole fraction) (in isopropanol, 308.2 K) was 0.000836. It also gave a solubility (mole fraction) (in isopropanol, 313.2 K) of 0.00104, a solubility (mole fraction) (in isopropanol, 318.2 K) of 0.00121 and a solubility (mole fraction) (in isopropanol, 323.2 K) of 0.0014. It also gave a solubility (mole fraction) (in isopropanol, 328.2 K) of 0.00185, a solubility (mole fraction) (in isopropanol, 333.2 K) of 0.00213 and a solubility (mole fraction) (in methanol, 293.2 K) of 0.000226. For the same molecule, the solubility (mole fraction) (in methanol, 298.2 K) was 0.000238, the solubility (mole fraction) (in methanol, 303.2 K) was 0.000299 and the solubility (mole fraction) (in methanol, 308.2 K) was 0.000324. For the same molecule, the solubility (mole fraction) (in methanol, 313.2 K) was 0.000406, the solubility (mole fraction) (in methanol, 318.2 K) was 0.000453 and the solubility (mole fraction) (in methanol, 323.2 K) was 0.000576. It also gave a solubility (mole fraction) (in methanol, 328.2 K) of 0.000711, a solubility (mole fraction) (in methanol, 333.2 K) of 0.000813 and a solubility (mole fraction) (in n-butanol, 293.2 K) of 0.000586. The solubility (mole fraction) (in n-butanol, 298.2 K) was 0.000663, the solubility (mole fraction) (in n-butanol, 303.2 K) was 0.000833 and the solubility (mole fraction) (in n-butanol, 308.2 K) was 0.000981. The solubility (mole fraction) (in n-butanol, 313.2 K) was 0.00115, the solubility (mole fraction) (in n-butanol, 318.2 K) was 0.00138 and the solubility (mole fraction) (in n-butanol, 323.2 K) was 0.0016. It also gave a solubility (mole fraction) (in n-butanol, 328.2 K) of 0.00195, a solubility (mole fraction) (in n-butanol, 333.2 K) of 0.00229 and a solubility (mole fraction) (in n-hexane, 293.2 K) of 1.4e-07. For the same molecule, the solubility (mole fraction) (in n-hexane, 298.2 K) was 2.95e-07, the solubility (mole fraction) (in n-hexane, 303.2 K) was 3.8e-07 and the solubility (mole fraction) (in n-hexane, 308.2 K) was 4.5e-07. For the same molecule, the solubility (mole fraction) (in n-hexane, 313.2 K) was 6.78e-07, the solubility (mole fraction) (in n-hexane, 318.2 K) was 1.08e-06 and the solubility (mole fraction) (in n-hexane, 323.2 K) was 1.25e-06. The solubility (mole fraction) (in n-hexane, 328.2 K) was 1.7e-06, the solubility (mole fraction) (in n-hexane, 333.2 K) was 2.21e-06 and the solubility (mole fraction) (in n-propanol, 293.2 K) was 0.000482. It also gave a solubility (mole fraction) (in n-propanol, 298.2 K) of 0.000569, a solubility (mole fraction) (in n-propanol, 303.2 K) of 0.000724 and a solubility (mole fraction) (in n-propanol, 308.2 K) of 0.000837. The solubility (mole fraction) (in n-propanol, 313.2 K) was 0.000971, the solubility (mole fraction) (in n-propanol, 318.2 K) was 0.00123 and the solubility (mole fraction) (in n-propanol, 323.2 K) was 0.00147. For the same molecule, the solubility (mole fraction) (in n-propanol, 328.2 K) was 0.0017, the solubility (mole fraction) (in n-propanol, 333.2 K) was 0.00195 and the solubility (mole fraction) (in water, 293.2 K) was 4.61e-09. The solubility (mole fraction) (in water, 298.2 K) was 8.63e-09, the solubility (mole fraction) (in water, 303.2 K) was 1.26e-08 and the solubility (mole fraction) (in water, 308.2 K) was 2.57e-08. The solubility (mole fraction) (in water, 313.2 K) was 3.96e-08, the solubility (mole fraction) (in water, 318.2 K) was 4.82e-08 and the solubility (mole fraction) (in water, 323.2 K) was 8.41e-08. For the same molecule, the solubility (mole fraction) (in water, 328.2 K) was 1.28e-07 and the solubility (mole fraction) (in water, 333.2 K) was 1.88e-07.
